This is an account of results in patent US12653902B2, “Photo-immunoconjugate formulations and methods of treatment relating thereto” (University of Maryland, College Park, priority 2019, dated 2026).

Series [1] can be described thus: Absorbance at 690 nm in PBS compared to DMSO. The format is physicochemical. Conditions: fixed BPD concentration.
A further series concerns OVCAR-5 cells. Kind of series: Intracellular BPD uptake (BPD fluorescence, extraction and imaging). The format is cell-based, human. Conditions: 24 hours post-incubation, compared to PIC and PIC-Nal. The protocol:
For uptake and phototoxicity studies, OVCAR-5 cells (200 k cells/35-mm dish) were incubated with PIC-Nal or controls (i.e., PIC alone, no-treatment) at a fixed BPD concentration (0.25 μM) for 24 hours. For uptake study, cells were washed twice with PBS and dissolved in SOLVABLE™. The BPD fluorescence signals (Ex/Em: 435/690 nm) were acquired using a microplate reader to quantify the uptake of PIC-Nal. In another set of experiments, washed cells were fixed with 4% paraformaldehyde, and stained with DAPI. Cells were imaged with the LionHeart Imager (BioTek) using the 10× objective to visualize the BPD signal (Ex/Em: 422/690 nm) and the DAPI signal (Ex/Em: 358/461 nm). BPD fluorescence intensity was quantified using ImageJ (Schneider C A et al., NIH Image to ImageJ: 25 years of image analysis. Nat Methods 2012, 9:671-675). For phototoxicity studies, cells were irradiated with a 690 nm laser (20 J/cm^2, 150 mW/cm^2) at 24 hours post-incubation of PIC-Nal or controls. Cell viability was determined by MTT (3-(4,5-dimethylthiazol-2-yl)-2,5-diphenyltetrazolium bromide) assay (Thermo) at 24 hours post-light activation.

The nature of series [2]: Photoactivity (maximal fluorescence intensity in PBS divided by that in DMSO). The format is physicochemical. Particulars: maximal FI in PBS divided by maximal FI in DMSO. The protocol: Photo-immunoconjugate-nanoliposomes (PIC-Nal) and photo-immunoconjugate-nanoliposomal irinotecan (PIC-Nal-IRI) were synthesized via cooper-free click chemistry (FIG. 1). Briefly, azide-containing PICs were mixed overnight with DBCO-containing Nal (or DBCO-containing Nal-IRI) at 60:1 ratio. Sepharose CL-4B size exclusion chromatography was used to purify PIC-Nal and PIC-Nal-IRI. Irinotecan and BPD concentrations were determined by UV-Vis spectroscopy and established molar extinction coefficients: 20985 M^−1cm^−1 at 380 nm for irinotecan, 80500 M^−1cm^−1 at 435 nm and 34,895 M^−1 cm^−1 at 687 nm for BPD (Table 1). Conjugation efficacy was determined by the molar ratio of PIC onto the liposomes to the total PIC added initially. Singlet oxygen sensor green (SOSG, 5 μM) was used to detect singlet oxygen (^1O2) yield upon light irradiation of PIC-Nal-IRI or controls. BPD concentration is fixed at 5 μM. A microplate reader (BioTek) was used to acquire SOSG fluorescence signals (Ex/Em: 504/525 nm) before and after light irradiation (690 nm, 150 mW/cm^2, 20 J/cm^2). Photoactivity is defined as the maximal fluorescence intensity (FI) of photosensitizer in PBS divided by the maximal FI of photosensitizer in DMSO.

For series [3] the following is noted: cited from earlier work.

benzoporphyrin derivative [BPD]: in series [1], the “loss of absorbance value at 690 nm in PBS compared to fully dissolved in DMSO” value is approximately 64%. Moreover, the “intracellular uptake by fluorescence imaging” value with OVCAR-5 cells is reported as “highest uptake”. Also, the photoactivity result in series [2] was “poor photoactivity”. Also, the water solubility in series [3] was less than 50 µg/mL.
